Results reported in US9944687B2, “Compounds and their effects on feeding behaviour” (Imperial Innovations Limited, priority 2011, dated 2018).
Where no end group is shown, it is not given here.

Assay: pair feeding in rats (food intake and body weight)
Type: in vivo, Male Wistar rats
Settings: for body weight gain versus corresponding pair-fed (PF) group: 10 days; for body weight gain versus corresponding pair-fed (PF) group / overall body weight change by the end of the 10 day test period versus saline control: FIG. 12b; for total food intake over 10 days / overall body weight change by the end of the 10 day test period versus saline control: daily injection, exendin-4 30, 285 100, 373 50, 398 200 nmol/kg; for total food intake over 10 days: FIG. 12a
Description: Pair feeding is a technique used to separate the weight loss observed in a cohort of animals which has been caused by appetite suppression from the weight loss caused by the induction of metabolic changes. Pair-feeding studies require daily measurement of body weight (BW) and food intake (FI). In pair-feeding studies, rats were divided into three weight-matched groups. Group 1 (the “saline” group) were given a daily injection of saline and allowed access to ad libitum food. Group 2 (identified by the code of the compound administered) were given daily injection of a selected compound of the invention and allowed access to ad libitum food.

HSQGTFTSDYSKYLDSQAVHLFIQWLLNGGPSSGAPPPS [compound 237]
body weight compared to the saline control (100 nmol/kg daily): reduction in body weight compared to the saline control | body weight reduction versus pair-fed (G237 PF) group (100 nmol/kg daily): not solely mediated by a reduction in food intake

His Ser Gln Gly Thr Phe Thr Ser Asp Tyr Ser His Tyr Leu Asp Ser Lys Ala Val His Leu Phe Ile Gln Trp Leu Leu Asn Gly-NH2 (HSQGTFTSDYSHYLDSKAVHLFIQWLLNG-NH2) [compound 285]
body weight gain versus corresponding pair-fed (PF) group: lower weight gains than the corresponding paired feeding groups | total food intake over 10 days: less overall food intake | overall body weight change by the end of the 10 day test period versus saline control: lower body weight gain than the saline control group

His Ser Gln Gly Thr Phe Thr Ser Asp Tyr Ser Lys Tyr Leu Asp Ser Gln Ala Val Arg Leu Phe Ile Glu Trp Leu Leu Asn Gly-NH2 (HSQGTFTSDYSKYLDSQAVRLFIEWLLNG-NH2) [compound 398]
body weight gain versus corresponding pair-fed (PF) group: lower weight gains than the corresponding paired feeding groups | total food intake over 10 days: less overall food intake | overall body weight change by the end of the 10 day test period versus saline control: lower body weight gain than the saline control group

His Ser Gln Gly Thr Phe Thr Ser Asp Tyr Ser Lys Tyr Leu Glu Ser Gln Ala Val His Leu Phe Ile Glu Trp Leu Lys Asn Gly-NH2 (HSQGTFTSDYSKYLESQAVHLFIEWLKNG-NH2) [compound 373]
body weight gain versus corresponding pair-fed (PF) group: lower weight gains than the corresponding paired feeding groups | total food intake over 10 days: less overall food intake | overall body weight change by the end of the 10 day test period versus saline control: lower body weight gain than the saline control group
